From the supplement of paper PMC10307832

Columns and labels:
Experiment in all cases: relative viability (nuclei count vs DMSO), 5 days (fraction); higher = more cells survive
NCI-H23 = test system: NCI-H23
Outline: (§1)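 Lung cancer cell lines were pin-tool dosed in 1536-well plates on the day after seeding, with either a lone drug or a fixed anchor-drug dose plus five library-drug doses (not always all listed) in √10 steps. Nuclei were counted on 4× images after 5 days. Relative viability is the ratio of treated-well to vehicle-well nuclei counts, with each value a median of duplicate plates.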

NCI-H596 = test system: NCI-H596
Outline: as §1

LK-2 = test system: LK-2
Outline: as §1

EKVX = test system: EKVX
Outline: as §1

NCI-H2170 = test system: NCI-H2170
Outline: as §1

SW 900 = test system: SW 900
Outline: as §1

NCI-H520 = test system: NCI-H520
Outline: as §1

NCI-H1792 = test system: NCI-H1792
Outline: as §1

ChaGo-K-1 = test system: ChaGo-K-1
Outline: as §1

COR-L 105 = test system: COR-L 105
Outline: as §1

HCC-366 = test system: HCC-366
Outline: as §1

LOU-NH91 = test system: LOU-NH91
Outline: as §1

NCI-H1975 = test system: NCI-H1975
Outline: as §1

A-427 = test system: A-427
Outline: as §1

EMC-BAC-2 = test system: EMC-BAC-2
Outline: as §1

NCI-H1734 = test system: NCI-H1734
Outline: as §1

NCI-H441 = test system: NCI-H441
Outline: as §1

NCI-H1755 = test system: NCI-H1755
Outline: as §1

NCI-H1666 = test system: NCI-H1666
Outline: as §1

PC-3 [JPC-3] = test system: PC-3 [JPC-3]
Outline: as §1

NCI-H1563 = test system: NCI-H1563
Outline: as §1

SK-MES-1 = test system: SK-MES-1
Outline: as §1

H3255 = test system: H3255
Outline: as §1

C=C1C(=O)O[C@@H](CCCCCCCC)[C@@H]1C(=O)O [C-75] + N=C(N)NC(=N)NCCc1ccccc1 [Phenformin] (partner 250 µM)
relative viability (NCI-H23; first compound 0.08 µM): 0.775 | relative viability (NCI-H23; first compound 0.253 µM): 0.758 | relative viability (NCI-H23; first compound 0.8 µM): 0.773 | relative viability (NCI-H23; first compound 2.53 µM): 0.582 | relative viability (NCI-H23; first compound 8 µM): 0.643 | relative viability (NCI-H596; first compound 0.08 µM): 0.891 | relative viability (NCI-H596; first compound 0.253 µM): 0.766 | relative viability (NCI-H596; first compound 0.8 µM): 0.846 | relative viability (NCI-H596; first compound 2.53 µM): 0.513 | relative viability (NCI-H596; first compound 8 µM): 0.717 | relative viability (LK-2; first compound 0.08 µM): 0.519 | relative viability (LK-2; first compound 0.253 µM): 0.537 | relative viability (LK-2; first compound 0.8 µM): 0.484 | relative viability (LK-2; first compound 2.53 µM): 0.226 | relative viability (LK-2; first compound 8 µM): 0.273 | relative viability (EKVX; first compound 0.08 µM): 0.213 | relative viability (EKVX; first compound 0.253 µM): 0.228 | relative viability (EKVX; first compound 0.8 µM): 0.232 | relative viability (EKVX; first compound 8 µM): 0.25 | relative viability (NCI-H2170; first compound 0.08 µM): 0.469 | relative viability (NCI-H2170; first compound 0.253 µM): 0.453 | relative viability (NCI-H2170; first compound 0.8 µM): 0.419 | relative viability (NCI-H2170; first compound 2.53 µM): 0.404 | relative viability (NCI-H2170; first compound 8 µM): 0.481 | relative viability (SW 900; first compound 0.08 µM): 0.642 | relative viability (SW 900; first compound 0.253 µM): 0.58 | relative viability (SW 900; first compound 0.8 µM): 0.513 | relative viability (SW 900; first compound 2.53 µM): 0.535 | relative viability (SW 900; first compound 8 µM): 0.495 | relative viability (NCI-H520; first compound 0.08 µM): 0.539 | relative viability (NCI-H520; first compound 0.253 µM): 0.747 | relative viability (NCI-H520; first compound 0.8 µM): 0.464 | relative viability (NCI-H520; first compound 2.53 µM): 0.389 | relative viability (NCI-H520; first compound 8 µM): 0.482 | relative viability (NCI-H1792; first compound 0.08 µM): 0.236 | relative viability (NCI-H1792; first compound 0.253 µM): 0.216 | relative viability (NCI-H1792; first compound 2.53 µM): 0.113 | relative viability (NCI-H1792; first compound 8 µM): 0.206 | relative viability (ChaGo-K-1; first compound 0.08 µM): 0.461 | relative viability (ChaGo-K-1; first compound 0.253 µM): 0.538 | relative viability (ChaGo-K-1; first compound 0.8 µM): 0.453 | relative viability (ChaGo-K-1; first compound 2.53 µM): 0.414 | relative viability (ChaGo-K-1; first compound 8 µM): 0.494 | relative viability (COR-L 105; first compound 0.08 µM): 0.507 | relative viability (COR-L 105; first compound 0.253 µM): 0.485 | relative viability (COR-L 105; first compound 0.8 µM): 0.547 | relative viability (COR-L 105; first compound 2.53 µM): 0.436 | relative viability (COR-L 105; first compound 8 µM): 0.436 | relative viability (HCC-366; first compound 0.08 µM): 0.586 | relative viability (HCC-366; first compound 0.253 µM): 0.634 | relative viability (HCC-366; first compound 0.8 µM): 0.61 | relative viability (HCC-366; first compound 8 µM): 0.571 | relative viability (LOU-NH91; first compound 0.08 µM): 0.715 | relative viability (LOU-NH91; first compound 0.253 µM): 0.741 | relative viability (LOU-NH91; first compound 0.8 µM): 0.612 | relative viability (LOU-NH91; first compound 2.53 µM): 0.532 | relative viability (LOU-NH91; first compound 8 µM): 0.749 | relative viability (NCI-H1975; first compound 0.08 µM): 0.403 | relative viability (NCI-H1975; first compound 0.253 µM): 0.398 | relative viability (NCI-H1975; first compound 0.8 µM): 0.389 | relative viability (NCI-H1975; first compound 2.53 µM): 0.345 | relative viability (NCI-H1975; first compound 8 µM): 0.412 | relative viability (A-427; first compound 0.08 µM): 0.361 | relative viability (A-427; first compound 0.253 µM): 0.342 | relative viability (A-427; first compound 0.8 µM): 0.33 | relative viability (A-427; first compound 2.53 µM): 0.284 | relative viability (A-427; first compound 8 µM): 0.303 | relative viability (EMC-BAC-2; first compound 0.08 µM): 0.58 | relative viability (EMC-BAC-2; first compound 0.253 µM): 0.478 | relative viability (EMC-BAC-2; first compound 0.8 µM): 0.48 | relative viability (EMC-BAC-2; first compound 2.53 µM): 0.42 | relative viability (EMC-BAC-2; first compound 8 µM): 0.448 | relative viability (NCI-H1734; first compound 0.08 µM): 0.413 | relative viability (NCI-H1734; first compound 0.253 µM): 0.427 | relative viability (NCI-H1734; first compound 0.8 µM): 0.356 | relative viability (NCI-H1734; first compound 2.53 µM): 0.286 | relative viability (NCI-H1734; first compound 8 µM): 0.283 | relative viability (NCI-H441; first compound 0.08 µM): 0.784 | relative viability (NCI-H441; first compound 0.253 µM): 0.725 | relative viability (NCI-H441; first compound 0.8 µM): 0.784 | relative viability (NCI-H441; first compound 2.53 µM): 0.672 | relative viability (NCI-H441; first compound 8 µM): 0.787 | relative viability (NCI-H1755; first compound 0.08 µM): 0.633 | relative viability (NCI-H1755; first compound 0.253 µM): 0.587 | relative viability (NCI-H1755; first compound 0.8 µM): 0.577 | relative viability (NCI-H1755; first compound 2.53 µM): 0.529 | relative viability (NCI-H1755; first compound 8 µM): 0.607 | relative viability (NCI-H1666; first compound 0.08 µM): 0.586 | relative viability (NCI-H1666; first compound 0.253 µM): 0.602 | relative viability (NCI-H1666; first compound 0.8 µM): 0.56 | relative viability (NCI-H1666; first compound 2.53 µM): 0.559 | relative viability (NCI-H1666; first compound 8 µM): 0.51 | relative viability (PC-3 [JPC-3]; first compound 0.08 µM): 0.457 | relative viability (PC-3 [JPC-3]; first compound 0.253 µM): 0.468 | relative viability (PC-3 [JPC-3]; first compound 0.8 µM): 0.47 | relative viability (PC-3 [JPC-3]; first compound 2.53 µM): 0.48 | relative viability (PC-3 [JPC-3]; first compound 8 µM): 0.503 | relative viability (NCI-H1563; first compound 0.08 µM): 0.656 | relative viability (NCI-H1563; first compound 0.253 µM): 0.64 | relative viability (NCI-H1563; first compound 0.8 µM): 0.655 | relative viability (NCI-H1563; first compound 2.53 µM): 0.63 | relative viability (NCI-H1563; first compound 8 µM): 0.691 | relative viability (SK-MES-1; first compound 0.08 µM): 0.652 | relative viability (SK-MES-1; first compound 0.253 µM): 0.697 | relative viability (SK-MES-1; first compound 0.8 µM): 0.636 | relative viability (SK-MES-1; first compound 2.53 µM): 0.658 | relative viability (SK-MES-1; first compound 8 µM): 0.702 | relative viability (H3255; first compound 0.08 µM): 0.345 | relative viability (H3255; first compound 0.253 µM): 0.352 | relative viability (H3255; first compound 0.8 µM): 0.392 | relative viability (H3255; first compound 2.53 µM): 0.337 | relative viability (H3255; first compound 8 µM): 0.331
